What was measured:
[1] = design: species or system human; settings: prediction for high-clearance drugs, not studied here
[2] = Integrated population pharmacokinetic model; assay type: in vivo, human; settings: for PNA on Cl: increase of clearance per hour of postnatal age, first 5 days of life; for Decrease of clearance during TH compared with normothermia: 33.5°C vs 36.5°C; for TEMP on Cl: reduction of clearance per °C of body temperature below 36.5°C
[3] = interindividual variability in clearance, common eta

SMILES | PNA on Cl [2] [%/h] | Correlation in clearance with Midazolam [2, 3] [%] | Correlation in clearance with Morphine [2, 3] [%] | Correlation in clearance with OHM [2, 3] [%] | other results
N=C1N[C@H]2[C@H](CS[C@H]2CCCCC(=O)O)N1 [2‐iminobiotin] | – | – | – | – | Expected change of clearance with PNA [1]: The same prediction can be made
CC1(C)S[C@@H]2[C@H](NC(=O)[C@H](N)c3ccc(O)cc3)C(=O)N2[C@H]1C(=O)O [Amoxicillin, amoxicillin] | 1.23 | – | – | – | –
CC1(C)S[C@@H]2[C@H](NC(=O)Cc3ccccc3)C(=O)N2[C@H]1C(=O)O [Benzylpenicillin, benzylpenicillin] | 1.23 | 52.8 | 58.6 | 53.4 | Correlation in clearance with Amoxicillin [2, 3]: 35.5%; Correlation in clearance with HMG [2, 3]: 52.8%; Correlation in clearance with M6G [2, 3]: 27.4%
CNC(C)C1CCC(N)C(OC2C(N)CC(N)C(OC3OCC(C)(O)C(NC)C3O)C2O)O1 (stereo not shown) [Gentamicin, gentamicin] | 1.23 | 41.4 | 45.9 | 41.8 | Correlation in clearance with Amoxicillin [2, 3]: 27.9%; Correlation in clearance with Benzylpenicillin [2, 3]: 38.8%; Correlation in clearance with HMG [2, 3]: 41.4%; Correlation in clearance with M3G [2, 3]: 23.4%; Correlation in clearance with M6G [2, 3]: 21.5%
O=C(O)[C@H]1O[C@@H](OCc2ncc3n2-c2ccc(Cl)cc2C(c2ccccc2F)=NC3)[C@H](O)[C@@H](O)[C@@H]1O [HMG, hydroxymidazolam glucuronide] | 1.23 | 56.4 | 62.6 | 57.0 | Correlation in clearance with M3G [2, 3]: 31.9%; Correlation in clearance with M6G [2, 3]: 29.3%
CN1CC[C@]23c4c5ccc(O[C@@H]6O[C@H](C(=O)O)[C@@H](O)[C@H](O)[C@H]6O)c4O[C@H]2[C@@H](O)C=C[C@H]3[C@H]1C5 [M3G, morphine‐3‐glucuronide] | 1.23 | 31.9 | 35.4 | 32.2 | –
CN1CC[C@]23c4c5ccc(O)c4O[C@H]2[C@@H](O[C@@H]2O[C@H](C(=O)O)[C@@H](O)[C@H](O)[C@H]2O)C=C[C@H]3[C@H]1C5 [M6G, morphine‐6‐glucuronide] | 1.23 | 29.3 | 32.5 | 29.6 | Correlation in clearance with M3G [2, 3]: 94.8%
CCNCC(=O)Nc1c(C)cccc1C [MEGX, monoethylglycinexylidide] | 1.23 | – | – | – | –
Cc1ncc2n1-c1ccc(Cl)cc1C(c1ccccc1F)=NC2 [Midazolam, midazolam] | 0.540 | – | 62.2 | – | Decrease of clearance during TH compared with normothermia [2]: 20.5%; TEMP on Cl [2]: 6.83 %/°C
OCc1ncc2n1-c1ccc(Cl)cc1C(c1ccccc1F)=NC2 [OHM, 1‐hydroxymidazolam] | 0.540 | 57.0 | 63.3 | – | Decrease of clearance during TH compared with normothermia [2]: 20.5%; TEMP on Cl [2]: 6.83 %/°C
CCC1(c2ccccc2)C(=O)NC(=O)NC1=O [Phenobarbital, phenobarbital] | – | – | – | – | PNA as covariate on clearance (in words) ([2]; recovery of organ function): No effect of PNA was identified
Oc1ncnc2[nH]ncc12 [allopurinol] | – | – | – | – | Expected change of clearance with PNA [1]: The same prediction can be made
CC[C@@H](C(N)=O)N1CCCC1=O [levetiracetam] | – | – | – | – | Expected change of clearance with PNA [1]: clearance increases strongly with PNA
